According to patent US11365200B2, “ATF3 induction compounds” (TAIPEI MEDICAL UNIVERSITY, priority 2017, dated 2022):

Experiments:
ATF3 = ATF3 promoter luciferase platform (pGL4-ATF3 stable clones) for screening ATF3 inducers; type: cell-based; details: pGL4-ATF3 transfected 3T3-L1 preadipocytes and H9C2 cardiomyocytes
Source text: The disclosure is directed to chromenone derivatives used as an ATF3 inducer compound and for treating and/or preventing obesity and obesity-related disorders. The compounds of this disclosure are obtained by: (1) transfecting a special DNA sequence of ATF3 (pGL4-ATF3) into 3T3-L1 preadipocytes and H9C2 cardiomyocytes; (2) using the stable clone as a platform for screening of drug for anti-obesity, anti-atherosclerosis, anti-cardiovascular disease and promotion of white-to-brown adipocyte transdifferentiation; and (3) using the platform for special drug screening. […] The invention further finds that these compounds have an inhibitory effect on obesity and obesity-induced diabetes and a facilitatory effect on white-to-brown adipocyte transdifferentiation, thereby increasing the body energy expenditure and suppressing diabetes. In addition, these compounds also can inhibit high blood pressure or hypoxia induced cardiomyopathy to increase heart function.
The invention uses a platform of ATF3 promoter luciferase to select AT3 inducer and confirms that these selected compounds can be used as anti-obesity, anti-diabetes and anti-heart disease drugs in view of the fact that these compounds have an inhibitory effect on obesity and obesity-induced diabetes and inhibition of high blood pressure or hypoxia induced cardiomyopathy, thereby increasing heart function. The platform of ATF3 promoter luciferase is created by transfecting a DNA sequence of ATF3 (pGL4-ATF3) into 3T3-L1 preadipocytes and H9C2 cardiomyocytes and using the stable clones as a platform for screening of drugs for anti-obesity, anti-atherosclerosis, anti-cardiovascular disease and promotion of white-to-brown adipocyte transdifferentiation. […]

[1] = Echocardiography after transverse aortic banding (TAB) or sham surgery; type: in vivo, mice; details: for EF / FS / IVSd / IVSs / LVIDd / LVIDs / LVPWd / LVPWs / Heart Rate: i.p. treatment twice a week, echocardiography, mean; for Heart Rate: in bpm (unit assumed)
Method: For echocardiography, mice were anesthetized with pentobarbital (40 mg/kg body weight, i.p.) and then measurements were taken with ultrasound equipment (ATL Philips IE33, Ultrasound Machine System, CA, U.S.A.) using a 15-MHz probe. The left ventricular posterior wall thickness (LVPW), inter-ventricular septum thickness (IVS), and left ventricular lumen diameter at both end-systolic and end-diastolic phases were measured digitally on the M-mode tracings and averaged for three cardiac cycles. Fractional shortening (FS) and ejection faction (EF) were then calculated.
Male mice (weighing 25-30 g) were anesthetized by intraperitoneal injection of chloral hydrate (125 mg/kg). The TAB procedure was performed according to the description by Hu et al. (Hu P, Zhang D, Swenson L, Chakrabarti G, Abel E D, and Litwin S E (2003) Minimally invasive aortic banding in mice: effects of altered cardiomyocyte insulin signaling during pressure overload. Am J Physiol Heart Circ Physiol 285:H1261-H1269). Echocardiography was performed at week 10 after TAB or sham surgery.
The experimental timeline for TAB and ST32da therapy was as follows. Mice were pre or post treated with intraperitoneal ST32da (0.2 mg/kg) twice a week from 4th to 10th week after TAB procedure. Echocardiographic measurements were performed on mice before (week 4) and after (week 10) ST32da, ST32db, ST32c therapy in both the procedure group and the nonprocedure group. Parameters, including interventricular septum thickness at diastole (IVSd) and systole (IVSs), left ventricular internal diameter at diastole (LVIDd) and systole (LVIDs), left ventricular posterior wall thickness at diastole (LVPWd) and systole (LVPWs), fractional shortening of left ventricle, ejection fraction of left ventricle (EF), and heart rate (HR) are shown.

[2] = GTT and ITT assays in HFD-fed mice; type: in vivo; details: HFD-fed WT mice, 0.5 mg/kg/day or 1 mg/kg/day
Method: Mice were fasted overnight for 16 h before receiving an intraperitoneal administration of 1.5 g glucose/kg body weight in saline. Blood samples were collected from the tail vein by tail snipping at 0, 15, 30, 45, 60, and 120 min, and plasma glucose and insulin levels were determined from those samples. An ITT was performed on mice after 1 h of fasting. Animals were intraperitoneally injected with 1.0 U insulin/kg body weight in saline. Blood samples were drawn from the tail vein at 0, 15, 30, 45 and 60 min for the measurement of plasma glucose levels. Plasma glucose levels in blood samples collected from tail veins were determined using a commercially available glucose meter (OneTouch Ultra blood glucose meter, LifeScan, Milpitas, Calif.). After the isolation of plasma from blood samples, insulin levels were determined by ELISA (Mercodia, Winston Salem, N.C.). To evaluate the degree of insulin resistance, values were calculated using the following homeostatic model of assessment of insulin resistance (HOMA-IR) formula: fasting glucose (in mg/dl)×fasting insulin (in mU/ml)/405.)

[3] = Animal model for obesity (45% high fat diet); type: in vivo; details: HFD-fed WT mice
[4] = TAB mice, week 4 to 10 after TAB

SMILES	ATF3 expression (screening for ATF3 inducers) (ATF3)	TAB-induced LV dilatation ([1]; TAB mice)	contractility ([1]; TAB mice)	EF [1, 4] [%]	FS [1, 4] [%]	IVSd [1, 4] [mm]	IVSs [1, 4] [mm]	LVIDd [1, 4] [mm]	LVIDs [1, 4] [mm]	LVPWd [1, 4] [mm]	LVPWs [1, 4] [mm]	Heart Rate [1, 4]	EF ([1]; sham mice, week 4 to 10) [%]	FS ([1]; sham mice, week 4 to 10) [%]	IVSd ([1]; sham mice, week 4 to 10) [mm]	IVSs ([1]; sham mice, week 4 to 10) [mm]	LVIDd ([1]; sham mice, week 4 to 10) [mm]	LVIDs ([1]; sham mice, week 4 to 10) [mm]	LVPWd ([1]; sham mice, week 4 to 10) [mm]	LVPWs ([1]; sham mice, week 4 to 10) [mm]	other results
C[C@@H]1Oc2c(c(=O)oc3c2ccc2ccccc23)[C@H]1C [ST32da, (1R,2S)-1,2-dimethyl-1H-benzo[h]furo[3,2-c]chromen-11(2H)-one]	induction of the above-mentioned ATF3 expression	attenuated TAB-induced LV dilatation	increased contractility	75.000	41.000	1.200	1.600	3.600	2.500	1.000	1.600	294.000	81.000	44.000	0.767	1.400	3.833	2.133	0.800	1.400	Heart Rate ([1]; sham mice, week 4 to 10): 303.667; glucose tolerance (glucose tolerance test) ([2]; FIG. 5D): enhanced glucose tolerance; insulin sensitivity (insulin tolerance test) ([2]; FIG. 5E): improved inulin sensitivity; HFD-induced obesity (percent of initial body weight) ([3]; 0.5 mg/kg/day or 1 mg/kg/day i.p., FIG. 5A left): could prevent HFD-induced obesity; adipose depot mass including iWAT, eWAT, mWAT, rWAT and BAT ([3]; 0.5 mg/kg/day or 1 mg/kg/day i.p., FIG. 5B): decreased adipose depot mass; liver weights ([3]; 0.5 mg/kg/day or 1 mg/kg/day i.p., FIG. 5C): did not affect liver weights
CC1Cc2c(c3ccc4ccccc4c3oc2=O)O1 (stereo not shown) [ST32c, 2-methyl-1H-benzo[h]furo[3,2-c]chromen-11(2H)-one]	induction of the above-mentioned ATF3 expression	attenuated TAB-induced LV dilatation	increased contractility	86.500	54.500	1.350	1.950	3.350	1.700	1.350	2.000	340.000	79.000	41.333	0.800	1.367	3.733	2.200	0.800	1.333	Heart Rate ([1]; sham mice, week 4 to 10): 318.667; HFD-induced obesity (body weight) ([3]; 0.5 mg/kg/day, FIG. 7): could prevent HFD-induced obesity
C[C@@H]1c2c(c3ccc4ccccc4c3oc2=O)O[C@@H]1C [ST32db, (1R,2R)-1,2-dimethyl-1H-benzo[h]furo[3,2-c]chromen-11(2H)-one]	induction of the above-mentioned ATF3 expression	attenuated TAB-induced LV dilatation	increased contractility	84.750	48.250	1.050	1.750	3.600	1.850	1.050	1.700	301.000	81.667	44.667	0.800	1.533	4.067	2.233	0.800	1.433	Heart Rate ([1]; sham mice, week 4 to 10): 318.500; HFD-induced obesity (body weight) ([3]; 1 or 10 mg/kg/day, FIG. 6A): could prevent HFD-induced obesity
